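Results reflect a 48-hour exposure of cells in 96-well plates to compound at five concentrations. TGI marks complete inhibition of growth.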
Key:
Assay in all cases: NCI-60 cell line screen, 48 h
[1] = system: SR leukemia
[2] = system: SF-539 CNS
[3] = system: SNB-19 CNS
[4] = system: MCF7 breast
[5] = system: HOP-62 NSCLC
[6] = system: IGROV1 ovarian
[7] = system: OVCAR-8 ovarian
[8] = system: MDA-N
[9] = system: SF-268 CNS
[10] = system: SK-MEL-5 melanoma
[11] = system: MOLT-4 leukemia
[12] = system: CAKI-1 renal
[13] = system: HCT-116 colon
[14] = system: HOP-92 NSCLC
[15] = system: CCRF-CEM leukemia
[16] = system: SW-620 colon
[17] = system: PC-3 prostate
[18] = system: NCI-H460 lung
[19] = system: SK-MEL-2 melanoma
[20] = system: U251 CNS
[21] = system: MALME-3M melanoma
[22] = system: NCI-H522 lung
[23] = system: OVCAR-4 ovarian
[24] = system: M14 melanoma
[25] = system: UACC-62 melanoma
[26] = system: SF-295 CNS
[27] = system: A498 renal
[28] = system: UO-31 renal
[29] = system: ACHN renal
[30] = system: K-562 leukemia
[31] = system: MDA-MB-435
[32] = system: EKVX NSCLC
[33] = system: SK-MEL-28 melanoma
[34] = system: LOX IMVI melanoma
[35] = system: TK-10 renal
[36] = system: SNB-75 CNS
[37] = system: NCI-H226 lung
[38] = system: RXF 393 renal
[39] = system: NCI-H23 lung
[40] = system: BT-549 breast
[41] = system: UACC-257 melanoma
[42] = system: OVCAR-5 ovarian
[43] = system: OVCAR-3 ovarian
[44] = system: HT29 colon
[45] = system: HCT-15 colon
[46] = system: SN12C renal
[47] = system: HL-60(TB) leukemia
[48] = system: A549 NSCLC
[49] = system: HS 578T breast
[50] = system: MDA-MB-231 breast
[51] = system: RPMI-8226 leukemia
[52] = system: NCI/ADR-RES ovarian
[53] = system: 786-0 renal
[54] = system: T-47D breast
[55] = system: COLO 205 colon
[56] = system: SK-OV-3 ovarian
[57] = system: DU-145 prostate
[58] = system: KM12 colon
[59] = system: HCC-2998 colon

C=CCc1c(C)nc(C)nc1N/N=C/C=C/c1ccccc1
TGI [1]: 57.3 µM | TGI [2]: > 100 µM | TGI [3]: > 100 µM | TGI [4]: 65.3 µM | TGI [5]: 38.8 µM | TGI [6]: > 100 µM | TGI [7]: 97.7 µM | TGI [8]: > 100 µM | TGI [9]: > 100 µM | TGI [10]: 84.2 µM | TGI [11]: 54 µM | TGI [12]: > 100 µM | TGI [13]: > 100 µM | TGI [14]: 99.5 µM | TGI [15]: > 100 µM | TGI [16]: > 100 µM | TGI [17]: > 100 µM | TGI [18]: 57.5 µM | TGI [19]: > 100 µM | TGI [20]: 61.3 µM | TGI [21]: > 100 µM | TGI [22]: > 100 µM | TGI [23]: 0.18 µM | TGI [24]: > 100 µM | TGI [25]: 53.4 µM | TGI [26]: 52.9 µM | TGI [27]: 65.2 µM | TGI [28]: > 100 µM | TGI [29]: > 100 µM | TGI [30]: 87.4 µM | TGI [31]: > 100 µM | TGI [32]: 69.2 µM | TGI [33]: > 100 µM | TGI [34]: > 100 µM | TGI [35]: 99.9 µM | TGI [36]: 91.6 µM | TGI [37]: > 100 µM | TGI [38]: 47 µM | TGI [39]: 94 µM | TGI [40]: 63.2 µM | TGI [41]: 48.9 µM | TGI [42]: > 100 µM | TGI [43]: 53.3 µM | TGI [44]: > 100 µM | TGI [45]: > 100 µM | TGI [46]: > 100 µM | TGI [47]: 81.2 µM | TGI [48]: > 100 µM | TGI [49]: > 100 µM | TGI [50]: > 100 µM | TGI [51]: 74.9 µM | TGI [52]: 64.8 µM | TGI [53]: > 100 µM | TGI [54]: 28 µM | TGI [55]: > 100 µM | TGI [56]: > 100 µM

COC(=O)NC1(NC(=O)OC)NC(=O)c2cc(OC)c(OC)cc2N1
TGI [1]: > 100 µM | TGI [57]: > 100 µM | TGI [2]: 60.8 µM | TGI [3]: > 100 µM | TGI [4]: > 100 µM | TGI [5]: > 100 µM | TGI [6]: > 100 µM | TGI [7]: > 100 µM | TGI [8]: 16 µM | TGI [9]: > 100 µM | TGI [10]: > 100 µM | TGI [12]: 61.9 µM | TGI [13]: > 100 µM | TGI [15]: 55.3 µM | TGI [16]: > 100 µM | TGI [17]: > 100 µM | TGI [18]: > 100 µM | TGI [19]: 67 µM | TGI [22]: 80 µM | TGI [24]: > 100 µM | TGI [25]: > 100 µM | TGI [26]: > 100 µM | TGI [28]: > 100 µM | TGI [29]: > 100 µM | TGI [30]: > 100 µM | TGI [31]: 13.7 µM | TGI [32]: > 100 µM | TGI [33]: > 100 µM | TGI [34]: > 100 µM | TGI [35]: > 100 µM | TGI [58]: > 100 µM | TGI [39]: > 100 µM | TGI [41]: > 100 µM | TGI [42]: > 100 µM | TGI [43]: 67.6 µM | TGI [45]: > 100 µM | TGI [46]: > 100 µM | TGI [48]: > 100 µM | TGI [49]: 85.1 µM | TGI [51]: > 100 µM | TGI [52]: > 100 µM | TGI [53]: > 100 µM | TGI [54]: > 100 µM | TGI [55]: > 100 µM

c1ccc(CSC2(SCc3ccccc3)CCCC2)cc1
TGI [1]: > 10 µM | TGI [57]: > 10 µM | TGI [2]: > 10 µM | TGI [3]: > 10 µM | TGI [4]: > 10 µM | TGI [5]: > 10 µM | TGI [6]: > 10 µM | TGI [7]: > 10 µM | TGI [8]: > 10 µM | TGI [9]: > 10 µM | TGI [10]: > 10 µM | TGI [11]: > 10 µM | TGI [59]: > 10 µM | TGI [12]: > 10 µM | TGI [13]: > 10 µM | TGI [15]: > 10 µM | TGI [16]: > 10 µM | TGI [17]: > 10 µM | TGI [18]: > 10 µM | TGI [19]: > 10 µM | TGI [20]: > 10 µM | TGI [21]: > 10 µM | TGI [22]: > 10 µM | TGI [23]: > 10 µM | TGI [24]: > 10 µM | TGI [25]: > 10 µM | TGI [26]: > 10 µM | TGI [27]: > 10 µM | TGI [28]: > 10 µM | TGI [29]: > 10 µM | TGI [30]: > 10 µM | TGI [31]: > 10 µM | TGI [32]: > 10 µM | TGI [33]: > 10 µM | TGI [34]: > 10 µM | TGI [35]: > 10 µM | TGI [36]: > 10 µM | TGI [37]: > 10 µM | TGI [38]: > 10 µM | TGI [58]: > 10 µM | TGI [39]: > 10 µM | TGI [42]: > 10 µM | TGI [43]: > 10 µM | TGI [44]: > 10 µM | TGI [45]: > 10 µM | TGI [46]: > 10 µM | TGI [47]: > 10 µM | TGI [48]: > 10 µM | TGI [49]: > 10 µM | TGI [50]: > 10 µM | TGI [51]: > 10 µM | TGI [52]: > 10 µM | TGI [54]: > 10 µM | TGI [55]: > 10 µM | TGI [56]: > 10 µM

Cc1ccc(S(=O)(=O)N2c3ccccc3[C@H]3CCc4c([nH]c5ccccc45)[C@H]32)cc1
TGI [57]: > 100 µM | TGI [2]: > 100 µM | TGI [3]: > 100 µM | TGI [4]: > 100 µM | TGI [5]: > 100 µM | TGI [6]: > 100 µM | TGI [7]: > 100 µM | TGI [8]: > 100 µM | TGI [9]: > 100 µM | TGI [10]: > 100 µM | TGI [11]: > 100 µM | TGI [59]: > 100 µM | TGI [12]: > 100 µM | TGI [13]: > 100 µM | TGI [14]: > 100 µM | TGI [15]: > 100 µM | TGI [16]: > 100 µM | TGI [17]: > 100 µM | TGI [18]: > 100 µM | TGI [19]: > 100 µM | TGI [20]: > 100 µM | TGI [23]: > 100 µM | TGI [24]: > 100 µM | TGI [25]: > 100 µM | TGI [26]: > 100 µM | TGI [28]: > 100 µM | TGI [29]: > 100 µM | TGI [30]: > 100 µM | TGI [31]: > 100 µM | TGI [32]: > 100 µM | TGI [33]: > 100 µM | TGI [34]: > 100 µM | TGI [35]: > 100 µM | TGI [36]: > 100 µM | TGI [37]: > 100 µM | TGI [38]: > 100 µM | TGI [58]: > 100 µM | TGI [39]: > 100 µM | TGI [40]: > 100 µM | TGI [41]: > 100 µM | TGI [42]: > 100 µM | TGI [43]: > 100 µM | TGI [44]: > 100 µM | TGI [46]: > 100 µM | TGI [48]: > 100 µM | TGI [50]: > 100 µM | TGI [51]: > 100 µM | TGI [52]: > 100 µM | TGI [54]: > 100 µM | TGI [55]: > 100 µM | TGI [56]: > 100 µM
